Results: the kinase profiling compilation of Christmann-Franck et al. (2016)

Key:
Assay in all cases: KINOMEscan competition binding
Conditions in all cases: compound 10.0 µM
[1] = target: SYK (human) (UniProt P43405)
[2] = target: HCK (human) (UniProt P08631)
[3] = target: PRKG2 (human) (UniProt Q13237)
[4] = target: CSK (human) (UniProt P41240)
[5] = target: LTK (human) (UniProt P29376)
[6] = target: DCLK1 (human) (UniProt O15075)
[7] = target: ABL2 (human) (UniProt P42684)
[8] = target: BTK (human) (UniProt Q06187)
Chain of BTK (human) (Q06187 whole entry, looked up): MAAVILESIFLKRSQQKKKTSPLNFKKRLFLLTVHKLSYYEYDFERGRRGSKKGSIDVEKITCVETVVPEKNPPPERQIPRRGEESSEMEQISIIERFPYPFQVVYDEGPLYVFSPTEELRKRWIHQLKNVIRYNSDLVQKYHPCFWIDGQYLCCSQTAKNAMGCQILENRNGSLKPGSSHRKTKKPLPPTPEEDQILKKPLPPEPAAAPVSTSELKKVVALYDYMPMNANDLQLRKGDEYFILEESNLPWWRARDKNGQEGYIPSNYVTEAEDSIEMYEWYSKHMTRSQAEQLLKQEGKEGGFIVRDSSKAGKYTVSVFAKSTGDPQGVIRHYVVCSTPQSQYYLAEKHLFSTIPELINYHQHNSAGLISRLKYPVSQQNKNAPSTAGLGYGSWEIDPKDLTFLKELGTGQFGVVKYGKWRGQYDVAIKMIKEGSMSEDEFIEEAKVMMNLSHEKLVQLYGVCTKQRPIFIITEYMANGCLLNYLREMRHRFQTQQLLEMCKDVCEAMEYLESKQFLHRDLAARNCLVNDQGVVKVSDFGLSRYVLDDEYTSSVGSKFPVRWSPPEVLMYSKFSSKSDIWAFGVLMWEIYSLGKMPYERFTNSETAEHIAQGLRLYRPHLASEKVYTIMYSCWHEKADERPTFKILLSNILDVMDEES

[9] = target: BRSK1 (human) (UniProt Q8TDC3)
[10] = target: STK32B (human) (UniProt Q9NY57)
Chain of STK32B (human) (Q9NY57 whole entry, looked up): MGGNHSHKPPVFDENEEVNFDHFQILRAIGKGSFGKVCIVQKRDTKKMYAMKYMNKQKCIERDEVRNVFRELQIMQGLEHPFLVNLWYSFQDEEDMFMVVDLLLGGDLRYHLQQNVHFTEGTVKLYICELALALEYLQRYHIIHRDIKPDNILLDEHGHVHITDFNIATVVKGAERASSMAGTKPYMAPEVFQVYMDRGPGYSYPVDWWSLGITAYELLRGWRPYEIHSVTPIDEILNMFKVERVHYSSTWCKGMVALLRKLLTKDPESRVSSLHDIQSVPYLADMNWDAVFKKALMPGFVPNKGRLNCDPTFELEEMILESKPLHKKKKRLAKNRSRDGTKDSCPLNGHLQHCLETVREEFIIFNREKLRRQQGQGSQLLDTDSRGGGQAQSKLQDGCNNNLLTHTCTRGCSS

[11] = target: TBK1 (human) (UniProt Q9UHD2)
[12] = tested on: PIK3CA (human), P42336 [H1047L]
[13] = target: TGFBR1 (human) (UniProt P36897)
[14] = target: TSSK1B (human) (UniProt Q9BXA7)
[15] = target: PRPF4B (human) (UniProt Q13523)
[16] = target: MAPK6 (human) (UniProt Q16659)
Chain of MAPK6 (human) (Q16659 whole entry, looked up): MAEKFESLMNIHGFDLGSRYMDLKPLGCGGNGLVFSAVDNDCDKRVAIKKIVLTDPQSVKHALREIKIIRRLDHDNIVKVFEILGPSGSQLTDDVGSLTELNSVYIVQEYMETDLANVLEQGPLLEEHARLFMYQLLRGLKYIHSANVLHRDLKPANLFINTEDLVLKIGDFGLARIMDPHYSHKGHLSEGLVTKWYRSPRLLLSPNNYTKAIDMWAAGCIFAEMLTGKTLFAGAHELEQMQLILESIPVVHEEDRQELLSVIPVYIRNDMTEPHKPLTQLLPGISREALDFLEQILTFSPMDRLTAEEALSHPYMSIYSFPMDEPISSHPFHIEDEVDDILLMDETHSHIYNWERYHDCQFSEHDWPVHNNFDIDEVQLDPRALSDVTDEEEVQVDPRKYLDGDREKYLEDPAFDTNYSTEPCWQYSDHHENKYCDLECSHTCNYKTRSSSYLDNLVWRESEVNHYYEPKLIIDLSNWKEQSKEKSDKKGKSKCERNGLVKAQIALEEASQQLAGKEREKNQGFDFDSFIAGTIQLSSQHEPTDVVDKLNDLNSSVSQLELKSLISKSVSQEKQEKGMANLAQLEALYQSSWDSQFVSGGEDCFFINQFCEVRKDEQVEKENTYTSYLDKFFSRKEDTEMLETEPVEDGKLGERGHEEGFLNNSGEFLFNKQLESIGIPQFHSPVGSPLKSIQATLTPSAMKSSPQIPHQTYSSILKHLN

[17] = tested on: PIK3CA (human), P42336 [H1047Y]
[18] = target: CDK17 (human) (UniProt Q00537)
Chain of CDK17 (human) (Q00537 whole entry, looked up): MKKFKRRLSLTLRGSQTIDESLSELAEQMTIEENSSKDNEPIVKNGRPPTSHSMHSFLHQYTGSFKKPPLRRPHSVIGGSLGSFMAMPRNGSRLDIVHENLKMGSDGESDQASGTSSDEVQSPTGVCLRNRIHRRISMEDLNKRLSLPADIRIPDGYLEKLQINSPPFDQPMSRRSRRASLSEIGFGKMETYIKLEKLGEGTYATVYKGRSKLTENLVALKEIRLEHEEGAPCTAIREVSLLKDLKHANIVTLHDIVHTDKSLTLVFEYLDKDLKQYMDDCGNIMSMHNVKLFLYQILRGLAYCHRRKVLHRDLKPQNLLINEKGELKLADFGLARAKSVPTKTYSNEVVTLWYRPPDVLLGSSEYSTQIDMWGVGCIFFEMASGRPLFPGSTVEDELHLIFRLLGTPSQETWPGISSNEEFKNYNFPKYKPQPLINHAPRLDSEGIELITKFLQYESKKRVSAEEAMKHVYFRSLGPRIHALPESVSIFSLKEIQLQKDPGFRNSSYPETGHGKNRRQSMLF

[19] = target: EPHA8 (human) (UniProt P29322)
[20] = tested on: RET (human), P07949 [V804L]
[21] = target: NUAK1 (human) (UniProt O60285)
Chain of NUAK1 (human) (O60285 whole entry, looked up): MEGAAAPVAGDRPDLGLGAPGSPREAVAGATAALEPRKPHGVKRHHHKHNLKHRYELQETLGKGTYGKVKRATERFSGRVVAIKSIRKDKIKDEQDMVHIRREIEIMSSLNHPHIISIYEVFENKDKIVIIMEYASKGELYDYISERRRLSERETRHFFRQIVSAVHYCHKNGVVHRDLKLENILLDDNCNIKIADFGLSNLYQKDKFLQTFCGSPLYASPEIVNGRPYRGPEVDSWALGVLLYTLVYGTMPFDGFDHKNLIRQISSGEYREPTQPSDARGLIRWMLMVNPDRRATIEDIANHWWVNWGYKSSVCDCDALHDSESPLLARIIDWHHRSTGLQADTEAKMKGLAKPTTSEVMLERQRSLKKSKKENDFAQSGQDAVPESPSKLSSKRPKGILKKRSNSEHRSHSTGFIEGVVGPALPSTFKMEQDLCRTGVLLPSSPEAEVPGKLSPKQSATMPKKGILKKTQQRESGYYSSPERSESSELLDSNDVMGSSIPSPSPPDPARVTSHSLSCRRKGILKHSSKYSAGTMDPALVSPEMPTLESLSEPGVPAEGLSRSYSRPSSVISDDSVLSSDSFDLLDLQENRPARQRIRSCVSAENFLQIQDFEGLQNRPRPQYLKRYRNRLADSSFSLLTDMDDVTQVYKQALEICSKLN

[22] = target: ANKK1 (human) (UniProt Q8NFD2)
[23] = target: PIP5K1A (human) (UniProt Q99755)
[24] = tested on: KIT (human), P10721 [L576P]
[25] = target: CDK14 (human) (UniProt O94921)
[26] = target: DAPK2 (human) (UniProt Q9UIK4)
[27] = target: ACVR2B (human) (UniProt Q13705)
[28] = target: RPS6KA4 KD1 (human) (UniProt O75676)
[29] = target: TIE1 (human) (UniProt P35590)
[30] = target: STK33 (human) (UniProt Q9BYT3)
[31] = target: RPS6KA1 KD1 (human) (UniProt Q15418)
[32] = target: HIPK2 (human) (UniProt Q9H2X6)
[33] = target: MYLK2 (human) (UniProt Q9H1R3)
[34] = target: LYN (human) (UniProt P07948)
[35] = target: YES1 (human) (UniProt P07947)
Chain of YES1 (human) (P07947 whole entry, looked up): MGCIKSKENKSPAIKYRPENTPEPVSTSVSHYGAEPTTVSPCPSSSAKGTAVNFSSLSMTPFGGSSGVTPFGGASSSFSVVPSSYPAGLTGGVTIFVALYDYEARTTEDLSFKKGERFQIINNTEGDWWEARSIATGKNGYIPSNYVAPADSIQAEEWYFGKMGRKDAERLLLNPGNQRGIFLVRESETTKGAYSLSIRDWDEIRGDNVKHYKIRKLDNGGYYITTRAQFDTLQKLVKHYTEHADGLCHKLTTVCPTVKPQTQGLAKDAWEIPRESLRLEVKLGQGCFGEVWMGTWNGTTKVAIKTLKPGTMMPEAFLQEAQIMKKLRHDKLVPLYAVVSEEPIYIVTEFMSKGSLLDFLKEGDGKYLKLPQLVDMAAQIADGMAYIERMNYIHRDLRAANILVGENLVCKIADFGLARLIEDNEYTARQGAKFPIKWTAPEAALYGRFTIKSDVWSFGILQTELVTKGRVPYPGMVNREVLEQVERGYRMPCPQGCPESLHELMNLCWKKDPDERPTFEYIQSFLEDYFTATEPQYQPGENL

[36] = target: EPHA5 (human) (UniProt P54756)
[37] = tested on: EIF2AK4 KD2 (human), Q9P2K8 [S808G]
[38] = target: RPS6KA5 KD2 (human) (UniProt O75582)
Chain of RPS6KA5 KD2 (human) (O75582 whole entry, looked up): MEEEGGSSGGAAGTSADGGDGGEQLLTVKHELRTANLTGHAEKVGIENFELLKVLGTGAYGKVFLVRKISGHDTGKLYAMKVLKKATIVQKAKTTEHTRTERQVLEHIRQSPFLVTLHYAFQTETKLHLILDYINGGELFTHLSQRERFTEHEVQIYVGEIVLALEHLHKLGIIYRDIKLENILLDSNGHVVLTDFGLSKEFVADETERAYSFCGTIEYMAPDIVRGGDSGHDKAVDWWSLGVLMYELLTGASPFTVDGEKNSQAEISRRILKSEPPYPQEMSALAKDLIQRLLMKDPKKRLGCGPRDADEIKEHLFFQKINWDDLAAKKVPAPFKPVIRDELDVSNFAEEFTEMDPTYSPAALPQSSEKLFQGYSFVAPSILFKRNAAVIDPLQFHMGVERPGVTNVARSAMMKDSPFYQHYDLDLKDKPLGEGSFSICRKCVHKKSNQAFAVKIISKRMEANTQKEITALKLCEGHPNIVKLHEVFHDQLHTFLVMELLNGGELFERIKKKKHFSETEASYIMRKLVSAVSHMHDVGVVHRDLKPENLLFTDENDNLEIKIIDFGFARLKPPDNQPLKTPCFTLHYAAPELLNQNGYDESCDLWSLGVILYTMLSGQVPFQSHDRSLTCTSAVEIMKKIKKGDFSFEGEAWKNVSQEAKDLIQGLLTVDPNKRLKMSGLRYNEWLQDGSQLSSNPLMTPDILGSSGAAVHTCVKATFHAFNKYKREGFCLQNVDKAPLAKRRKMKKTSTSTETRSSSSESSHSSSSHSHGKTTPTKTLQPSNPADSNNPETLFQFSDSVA

[39] = target: ERN1 (human) (UniProt O75460)
[40] = target: FGR (human) (UniProt P09769)
[41] = target: CDK18 (human) (UniProt Q07002)

Chain of HCK (human) (P08631 whole entry, looked up): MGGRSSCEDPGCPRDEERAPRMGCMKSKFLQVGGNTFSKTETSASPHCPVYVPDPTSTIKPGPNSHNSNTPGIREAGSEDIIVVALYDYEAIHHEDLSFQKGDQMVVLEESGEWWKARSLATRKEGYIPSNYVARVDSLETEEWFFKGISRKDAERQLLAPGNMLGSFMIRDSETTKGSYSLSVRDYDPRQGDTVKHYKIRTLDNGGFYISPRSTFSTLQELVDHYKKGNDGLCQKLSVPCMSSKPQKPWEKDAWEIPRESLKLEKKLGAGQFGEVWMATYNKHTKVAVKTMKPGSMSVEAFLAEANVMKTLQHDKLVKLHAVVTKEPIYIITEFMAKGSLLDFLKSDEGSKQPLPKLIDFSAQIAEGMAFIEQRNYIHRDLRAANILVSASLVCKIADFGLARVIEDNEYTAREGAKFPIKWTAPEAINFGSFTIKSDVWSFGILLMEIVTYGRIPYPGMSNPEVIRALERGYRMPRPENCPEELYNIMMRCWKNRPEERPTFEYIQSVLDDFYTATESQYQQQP

COc1ccc(CNC(=O)Nc2ncc([N+](=O)[O-])s2)cc1
kinase still bound, per cent of control [1]: 100%
kinase still bound, per cent of control [2]: 100%
kinase still bound, per cent of control [3]: 100%
kinase still bound, per cent of control [4]: 100%
kinase still bound, per cent of control [5]: 100%
kinase still bound, per cent of control [6]: 100%
kinase still bound, per cent of control [7]: 89%
kinase still bound, per cent of control [8]: 100%
kinase still bound, per cent of control [9]: 100%
kinase still bound, per cent of control [10]: 100%
kinase still bound, per cent of control [11]: 100%
kinase still bound, per cent of control [12]: 100%
kinase still bound, per cent of control [13]: 82%
kinase still bound, per cent of control [14]: 91%
kinase still bound, per cent of control [15]: 100%
kinase still bound, per cent of control [16]: 100%
kinase still bound, per cent of control [17]: 100%
kinase still bound, per cent of control [18]: 79%
kinase still bound, per cent of control [19]: 100%
kinase still bound, per cent of control [20]: 100%
kinase still bound, per cent of control [21]: 100%
kinase still bound, per cent of control [22]: 100%
kinase still bound, per cent of control [23]: 70%
kinase still bound, per cent of control [24]: 97%
kinase still bound, per cent of control [25]: 95%
kinase still bound, per cent of control [26]: 93%
kinase still bound, per cent of control [27]: 100%
kinase still bound, per cent of control [28]: 98%
kinase still bound, per cent of control [29]: 100%
kinase still bound, per cent of control [30]: 75%
kinase still bound, per cent of control [31]: 100%
kinase still bound, per cent of control [32]: 90%
kinase still bound, per cent of control [33]: 93%
kinase still bound, per cent of control [34]: 74%
kinase still bound, per cent of control [35]: 83%
kinase still bound, per cent of control [36]: 100%
kinase still bound, per cent of control [37]: 100%
kinase still bound, per cent of control [38]: 100%
kinase still bound, per cent of control [39]: 100%
kinase still bound, per cent of control [40]: 100%
kinase still bound, per cent of control [41]: 89%

Cc1cnc(-c2cnc(NCCNc3ccc(C#N)cn3)nc2-c2ccc(Cl)cc2Cl)[nH]1
kinase still bound, per cent of control [1]: 100%
kinase still bound, per cent of control [2]: 100%
kinase still bound, per cent of control [3]: 100%
kinase still bound, per cent of control [4]: 100%
kinase still bound, per cent of control [5]: 100%
kinase still bound, per cent of control [6]: 100%
kinase still bound, per cent of control [7]: 100%
kinase still bound, per cent of control [8]: 100%
kinase still bound, per cent of control [9]: 100%
kinase still bound, per cent of control [10]: 100%
kinase still bound, per cent of control [11]: 96%
kinase still bound, per cent of control [12]: 100%
kinase still bound, per cent of control [13]: 100%
kinase still bound, per cent of control [14]: 94%
kinase still bound, per cent of control [15]: 100%
kinase still bound, per cent of control [16]: 100%
kinase still bound, per cent of control [17]: 69%
kinase still bound, per cent of control [18]: 100%
kinase still bound, per cent of control [19]: 100%
kinase still bound, per cent of control [20]: 100%
kinase still bound, per cent of control [21]: 100%
kinase still bound, per cent of control [22]: 100%
kinase still bound, per cent of control [23]: 100%
kinase still bound, per cent of control [24]: 92%
kinase still bound, per cent of control [25]: 100%
kinase still bound, per cent of control [26]: 94%
kinase still bound, per cent of control [27]: 100%
kinase still bound, per cent of control [28]: 64%
kinase still bound, per cent of control [29]: 100%
kinase still bound, per cent of control [30]: 100%
kinase still bound, per cent of control [31]: 100%
kinase still bound, per cent of control [32]: 100%
kinase still bound, per cent of control [33]: 97%
kinase still bound, per cent of control [34]: 100%
kinase still bound, per cent of control [35]: 100%
kinase still bound, per cent of control [36]: 100%
kinase still bound, per cent of control [37]: 100%
kinase still bound, per cent of control [38]: 100%
kinase still bound, per cent of control [39]: 100%
kinase still bound, per cent of control [40]: 100%
kinase still bound, per cent of control [41]: 100%
